Marks after values point to notes of the source that are not given here. Side chains are listed from the residue outwards. Ends that are not written are not given here.
Legend:
[1] = test system: thrombus from rat arterial blood; test: In vitro thrombolysis; parameters: species or system SD rats; details: 2 h at 37° C., n = 6
Protocol: SD rats (male, 350 to 400 g) were anaesthetized by intraperitoneal injection of a urethane solution at a dosage of 1200 mg/kg. The anaesthetized rats were fixed in a supine position, and the right common carotid artery was dissected, clamped at the proximal end with an arterial clip, and penetrated with a suture at the proximal and distal ends, respectively. The suture at the distal end is clipped tightly by a hemostatic clamp at the fur. Cannulation was performed at the distal end, the artery clamp was removed, and the total arterial blood was discharged into a 50 ml container previously treated with silicone oil. […] rat arterial blood was injected into a vertically fixed glass tube (20 mm in length, with an inner diameter of 4 mm and an outer diameter of 5 mm, sealed with a rubber stopper at the bottom), into which was immediately inserted a thrombus immobilization screw made of stainless steel. […] 40 min after the blood was coagulated, the rubber stopper at the bottom of the glass tube was removed, the stem of the thrombus immobilization screw was nipped by forceps, and the thrombus-wrapped thrombus immobilization screw was carefully taken out from the glass tube. The screw was then suspended and dipped in triple-distilled water to remove excessive blood, and accurately weighed after 1 h. The thrombus was suspended in 8 mL of normal saline, or a solution of compounds Ia-Il in normal saline (at a concentration of 100 nM), or a solution of ARPAK (SEQ. ID NO. 4), GRPAK (SEQ. ID NO. 5), RPAK (SEQ. ID NO. 3) or PAK in normal saline (at a concentration of 100 nM), or a solution of urokinase in normal saline (100 IU/mL), then shaked at 37° C. in a thermostatic shaker (63 r/min), and removed after 2 h and accurately weighed to determine the weight of the thrombus.

[2] = test system: rats with stroke; test: Cerebral infarction volume after immediate treatment of stroke (TTC staining); type: in vivo, SD rats; details: n = 10
Protocol: After the rats were awake for 24 h and assessed for their degree of damage in neural function in Experimental example 6, they were anesthesized with urethane followed by immediate decapitation and removal of the brain. Brain tissues were kept in a −20° C. refrigerator for 2 h, and coronal sections of about 2 mm were successively sliced from the prefrontal end for a total of 6 sections, and then placed into a 2% TTC solution to incubate in darkness at 37° C. for 30 min. The color change in brain sections was observed: normal brain tissues were stained red by TTC, while ischemic brain tissues, i.e., brain tissues with infracts, appeared in a white color. Photographs were taken by using a digital camera and processed with SPSS statistics software, and the volume of infarction in brain tissues and the volume of normal brain tissues in the coronal sections were calculated.

[3] = test system: thrombus; test: In vivo thrombolysis, rat arteriovenous bypass thrombolysis model; parameters: species or system SD rats; details: after 1 h, n = 10
Protocol: SD rats (male, 220 to 230 g) were anaesthetized by intraperitoneal injection of a urethane solution at a dosage of 1200 mg/kg. The anaesthetized rats were fixed in a supine position, and the right common carotid artery was dissected, clamped at the proximal end with an arterial clip, and penetrated with a suture at the proximal and distal ends, respectively. The suture at the distal end is clipped tightly by a hemostatic clamp at the fur. Cannulation was performed at the distal end, the arterial clamp was removed, and about 1 ml arterial blood was discharged into a 1 ml eppendorf. 0.1 ml rat arterial blood was injected into a vertically fixed glass tube (15 mm in length, with an inner diameter of 2.5 mm and an outer diameter of 5.0 mm, sealed with a rubber stopper at the bottom), into which was immediately inserted a thrombus immobilization screw made of stainless steel. […] 15 min after the blood was coagulated, the rubber stopper at the bottom of the glass tube was removed, the stem of the thrombus immobilization screw was nipped by forceps, and the thrombus-wrapped thrombus immobilization screw was carefully taken out of the glass tube and then accurately weighed.
A bypass cannula was composed of 3 segments. The middle segment was a polyethylene tubing having a length of 60.0 mm and an inner diameter of 3.5 mm. The segments on both ends were similar polyethylene tubes having a length of 100.0 mm, an inner diameter of 1.0 mm and an outer diameter of 2.0 mm, one end of which was pulled to form a tip, with an outer diameter of 1.0 mm, that could be inserted into the rat carotid artery or vein, and the other end of which was sheathed by a polyethylene tube having a length of 7.0 mm and an outer diameter of 3.5 mm (thickened in order to be inserted into the polyethylene tubing of the middle segment). The inner wall of the 3-segment cannula was entirely silylated (with 1% silicone oil in ethyl ether). The thrombus-wrapped thrombus immobilization screw was placed into the polyethylene tubing of the middle segment, and both ends of the tubing sheathed the thickened ends of the two polyethylene tubes. The cannula was filled with a heparin solution in normal saline (50 IU/kg) through the tip end by using an injector and was ready for use. The trachea of the anaesthetized rat was then dissected and tracheal cannulation was performed. The left external carotid vein of the rat was dissected, and penetrated with a suture at the proximal and distal ends, respectively. An uneven open incision was careful made on the exposed left external carotid vein, and the tip of the bypass cannula prepared as described above was inserted into the proximal end of the open incision in the left external carotid vein, away from the stem of the thrombus immobilization screw in the middle segment of the bypass cannula (which accommodated the accurately weighed thrombus immobilization screw). A precise amount of heparin in saline (50 IU/kg) was injected through the tip at the other end by using an injector. At this moment, without removing the injector from the ethylene tube, the tubing between the injector and the polyethylene tube was clamped with forceps. The blood flow was stopped by clamping the proximal end of the right common carotid artery with an arterial clip, and an uneven open incision was cut carefully across the common carotid artery near the clip. The injector was pulled out of the tip of the polyethylene tube, and the tip of the polyethylene tube was then inserted into the proximal end of the artery open incision. Both ends of the bypass cannula were fixed to the artery or vein with #4 sutures. […]

[4] = test system: euglobulin clot; test: Euglobulin clot lysis; type: biochemical, Pig; details: after 4 h, n = 3
Protocol: Pig blood was taken and mixed with 3.8% sodium citrate in a volume ratio of 9:1, immediately centrifuged at 3000 r/min for 10 min, and platelet-poor plasma was separated. 2 mL platelet-poor pig plasma and 36 mL ultrapure water were added into a 50 mL centrifuge tube. In each tube, 0.4 mL acetic acid (1%) was added and thoroughly mixed, and the tube was placed in a 4° C. refrigerator for 10 min and then centrifuged at 3000 r/min for 10 min. The centrifuge tubes were inverted, and then the inner wall of the tubes was dried using a filter paper after the liquid was drained. The euglobuin pellets resulting from centrifugation was freeze-dried for about 40 min and scratched out. About 35 mg euglobuin was taken and dissolved in 7 ml borax buffer (pH 9.28). The euglobuin were mostly dissolved after 1 h, into which 0.7 mL CaCl2 solution (25 mM) was added, and immediately plated on a 10×10 cm glass plate with a thickness of about 1 mm. After clot formation, 10 μL normal saline, or 10 μL of a solution of one of compounds Ia to Il in normal saline (1 mM) or 10 μL of a urokinase solution in normal saline (0.8 mg/mL) was pipetted and spotted onto the clot plate, with an interval between every two drops more than 1.5 cm, and each sample was spotted 3 times.

Substance	Weight reduction in thrombus (Mean ± SD mg) ([1]; 100 nM)	Percentage of infarction volume (Mean ± SD %) [2]	Weight reduction in thrombus (Mean ± SD mg) ([3]; 0.1 μmol/kg)	Diameter (Mean ± SD mm) of euglobulin clot lysis ([4]; 10 μL of 1 mM solution)	Weight reduction in thrombus (Mean ± SD mg) ([1]; urokinase 100 IU/mL)	Percentage of infarction volume (Mean ± SD %) ([2]; urokinase 20000 IU/kg, immediate treatment)	Weight reduction in thrombus (Mean ± SD mg) ([3]; urokinase 20000 IU/kg)	Diameter (Mean ± SD mm) of euglobulin clot lysis ([4]; 10 μL of urokinase 0.8 mg/mL)
1,3-dioxo-2-{4′-oxyacetyl-[N^ω-(Ala-Arg-Pro-Ala-Lys)-Lys-Arg-Gly-Asp-Phe]phenyl}-4,4,5,5-tetramethylimidazoline [Ic]	27.33 ± 2.07 mg	7.40 ± 1.65%	15.79 ± 3.07 mg	3.8 mm	–	–	–	–
1,3-dioxo-2-{4′-oxyacetyl-[N^ω-(Ala-Arg-Pro-Ala-Lys)-Lys-Arg-Gly-Asp-Ser]phenyl}-4,4,5,5-tetramethylimidazoline [Ia]	28.50 ± 2.59 mg	7.21 ± 0.82%	15.39 ± 3.19 mg	4.0 mm	–	–	–	–
1,3-dioxo-2-{4′-oxyacetyl-[N^ω-(Ala-Arg-Pro-Ala-Lys)-Lys-Arg-Gly-Asp-Val]phenyl}-4,4,5,5-tetramethylimidazoline [Ib]	28.17 ± 2.31 mg	7.13 ± 0.83%	14.35 ± 2.95 mg	5.2 mm	–	–	–	–
1,3-dioxo-2-{4′-oxyacetyl-[N^ω-(Arg-Pro-Ala-Lys)-Lys-Arg-Gly-Asp-Phe]phenyl}-4,4,5,5-tetramethylimidazoline [Ii]	24.83 ± 1.17 mg	7.06 ± 1.08%	15.73 ± 2.95 mg	4.0 mm	–	–	–	–
1,3-dioxo-2-{4′-oxyacetyl-[N^ω-(Arg-Pro-Ala-Lys)-Lys-Arg-Gly-Asp-Ser]phenyl}-4,4,5,5-tetramethylimidazoline [Ig]	27.83 ± 2.56 mg	6.40 ± 0.28%	16.35 ± 2.42 mg	5.2 mm	–	–	–	–
1,3-dioxo-2-{4′-oxyacetyl-[N^ω-(Arg-Pro-Ala-Lys)-Lys-Arg-Gly-Asp-Val]phenyl}-4,4,5,5-tetramethylimidazoline [Ih]	29.33 ± 3.01 mg	7.35 ± 1.14%	15.37 ± 1.82 mg	4.2 mm	–	–	–	–
1,3-dioxo-2-{4′-oxyacetyl-[N^ω-(Gly-Arg-Pro-Ala-Lys)-Lys-Arg-Gly-Asp-Phe]phenyl}-4,4,5,5-tetramethylimidazoline [If]	15.29 ± 3.36 mg	7.47 ± 1.31%	15.29 ± 3.36 mg	4.5 mm	–	–	–	–
1,3-dioxo-2-{4′-oxyacetyl-[N^ω-(Gly-Arg-Pro-Ala-Lys)-Lys-Arg-Gly-Asp-Ser]phenyl}-4,4,5,5-tetramethylimidazoline	14.17 ± 3.55 mg	8.21 ± 1.91%	14.17 ± 3.55 mg	5.2 mm	–	–	–	–
1,3-dioxo-2-{4′-oxyacetyl-[N^ω-(Pro-Ala-Lys)-Lys-Arg-Gly-Asp-Phe]phenyl}-4,4,5,5-tetramethylimidazoline (K([Lys-Ala-Pro])RGDF; not fully specified (N-terminus); also: 4′-oxyacetylphenyl-1,3-dioxo-4,4,5,5-tetramethylimidazoline (nitronyl nitroxide) conjugate, attachment amine not clear) [Il]	25.83 ± 2.31 mg	6.56 ± 0.41%	16.21 ± 2.84 mg	4.2 mm	–	–	–	–
1,3-dioxo-2-{4′-oxyacetyl-[N^ω-(Pro-Ala-Lys)-Lys-Arg-Gly-Asp-Ser]phenyl}-4,4,5,5-tetramethylimidazoline (K([Lys-Ala-Pro])RGDS; not fully specified (N-terminus); also: 4′-oxyacetylphenyl-1,3-dioxo-4,4,5,5-tetramethylimidazoline (nitronyl nitroxide) conjugate, attachment amine not clear) [Ij]	26.16 ± 3.15 mg	6.84 ± 0.82%	14.89 ± 1.84 mg	4.0 mm	–	–	–	–
1,3-dioxo-2-{4′-oxyacetyl-[N^ω-(Pro-Ala-Lys)-Lys-Arg-Gly-Asp-Val]phenyl}-4,4,5,5-tetramethylimidazoline (K([Lys-Ala-Pro])RGDV; not fully specified (N-terminus); also: 4′-oxyacetylphenyl-1,3-dioxo-4,4,5,5-tetramethylimidazoline (nitronyl nitroxide) conjugate, attachment amine not clear) [Ik]	25.00 ± 1.54 mg	7.86 ± 1.02%	15.47 ± 2.61 mg	4.5 mm	–	–	–	–
urokinase	–	–	–	–	58.33 ± 4.08^a mg	11.00 ± 2.42 ^b %	18.02 ± 2.32^a mg	10.7 mm

Reference: patent publication US10806798B2, “Compound with effects of thrombolysis, free radical scavenging and thrombus-targeting” (Shanghai Lumosa Therapeutics Co., Ltd., priority 2012, dated 2020)
